According to EP0508725A1, “Novel process for the preparation of 8a-aza-8a-homoerythromycin cyclic iminoethers” (MERCK & CO. INC., priority 1991, dated 1992):

Columns and labels:
Assay in all cases: MIC, liquid turbidimetric microtiter method in brain heart infusion broth
Format in all cases: cell-based
[1] = tested on: Streptococcus agalactiae CL 1343
Excerpt: (§1) The antibacterial activities of compound (VII) against a panel of aerobic Gram positive and negative bacteria is shown in the following Table. The assay employs a liquid turbidimetric microtiter method for the determination of the minimum inhibitory concentration (MIC) in brain heart infusion broth. […] The MIC is generally not an absolute value but rather a concentration ranged that falls within a two-fold dilution limit. Generally twelve two-fold dilutions of the test compound are employed with the initial concentration set at 128 mcg/ml.

[2] = tested on: Klebsiella pneumoniae MB 4005
Excerpt: as §1

[3] = tested on: Streptococcus pyogenes MB 2874
Excerpt: as §1

[4] = tested on: Escherichia coli MB 4926
Excerpt: as §1

[5] = tested on: Staphylococcus haemolyticus MB 5412
Excerpt: as §1

[6] = tested on: Staphylococcus epidermidis MB 5414
Excerpt: as §1

[7] = tested on: Escherichia coli MB 2884
Excerpt: as §1

[8] = tested on: Pseudomonas stutzeri MB 1231
Excerpt: as §1

[9] = tested on: Streptococcus pyogenes MB 5406
Excerpt: as §1

[10] = tested on: Enterococcus faecalis MB 5407
Excerpt: as §1

[11] = tested on: Enterococcus faecium MB 5416
Excerpt: as §1

[12] = tested on: Steptococcus viridans CL 2943
Excerpt: as §1

[13] = tested on: Streptococcus pneumoniae CL 2883
Excerpt: as §1

[14] = tested on: Staphylococcus aureus MB 2865
Excerpt: as §1

[15] = tested on: Yersinia enterocoltica CL 1598
Excerpt: as §1

- MIC Values [1]: 1 mcg/m
- MIC Values [2]: >128 mcg/m
- MIC Values [3]: 1 mcg/m
- MIC Values [4]: 8 mcg/m
- MIC Values [6]: 32 mcg/m
- MIC Values [7]: 128 mcg/m
- MIC Values [8]: 0.5 mcg/m
- MIC Values [9]: 128 mcg/m
- MIC Values [10]: 32 mcg/m
- MIC Values [11]: 8 mcg/m
- MIC Values [12]: 16 mcg/m
- MIC Values [13]: 0.5 mcg/m
- MIC Values [14]: 16 mcg/m
- MIC Values [15]: 128 mcg/m
SMILES: CC[C@H]1OC(=O)[C@H](C)[C@@H](O[C@H]2C[C@@](C)(OC)[C@@H](O)[C@H](C)O2)[C@H](C)[C@@H](O[C@@H]2O[C@H](C)C[C@H](N(C)C)[C@H]2O)[C@](C)(O)C[C@@H](C)N=C2O[C@@]1(C)[C@H](O)[C@H]2C [Compound (VII), 9-Deoxo-12-deoxy-9,12-epoxy-8a,9-didehydro-8a-aza-8a-homoerythromycin A]
- MIC Values [5]: 8 mcg/m
